Data taken from US11000033B2, “Ketone or oxime compound, and herbicide” (NISSAN CHEMICAL CORPORATION, priority 2014, dated 2021).

Legend:
Format in all cases: in vivo
transplanted rice plant = experiment: Test Example 1: effect on crop, application before weed generation in submerged conditions (symbol a); conditions: application herbicide amount 320 g/ha
Outline: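 Alluvial soil pots flooded to 4 cm water, sown with Echinochloa oryzacola, Scirpus juncoides and Monochoria vaginalis, then transplanted with 2.5 leaf stage rice seedlings; pre-emergence application. Greenhouse 25° C. to 30° C.; scored 0–5 by herbicidal ratio 3 weeks after application.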

Leptochloa chinensis = experiment: Test Example 3: herbicidal effect by foliage application, Wagner pot (symbol D); conditions: application herbicide amount 320 g/ha
Outline: (§1)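 Foliar spray of water-diluted emulsion formulation at a predetermined herbicide amount onto 14-day-old plants in flooded alluvial soil (water depth 0.1–0.5 cm), greenhouse 25–30 °C; rice sown alongside. Scored 3 wk post-application on set criteria.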

[1] = test system: directly sowed rice plant; experiment: Test Example 3: effect on crop by foliage application, Wagner pot (symbol b); conditions: application herbicide amount 320 g/ha
Outline: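 Wagner pot (1/10000 are), alluvial soil, submerged 0.1–0.5 cm; sown E. crus-galli var. crus-galli, L. chinensis, C. difformis, rice; greenhouse 25–30 °C.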

soybean = experiment: Test Example 5: effect on crop by foliage application, plastic box (symbol d); conditions: 320 g/ha, 3 weeks after application
Outline: (§2)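 Sterilized diluvial soil, plastic box (21 × 13 × 7 cm); spot sowing, ~1.5 cm soil cover; greenhouse 25–30° C.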

Monochoria vaginalis [2] = experiment: Test Example 2: herbicidal activity, application during weed generation in submerged conditions (symbol C); conditions: Table 23; application herbicide amount 320 g/ha; grade 0-5 by criteria of Test Example 1
Protocol: (§3) Herbicidal Activity Test by Application During Weed Generation in Submerged Conditions
(§4) After alluvial soil was placed into 1/10000 are of Wagner pot, water was poured and mixed to form a submerged condition having a water depth of 4 cm. Seeds of Echinochloa oryzacola Vasing., Scirpus juncoides, and Monochoria vaginalis were sowed in a mixed manner in the above pot and the pot was placed in the greenhouse of 25° C. to 30° C. to grow the plants. When Echinochloa oryzacola Vasing., Scirpus juncoides, and Monochoria vaginalis were grown to one leaf stage to two leaf stage, the emulsion agent of the compound of the present invention prepared in accordance with Formulation Example 2 was diluted with water so as to be a predetermined herbicide amount and the diluted emulsion agent was applied to the surface of the water. 3 weeks later from the herbicide application, the effect to each plant was investigated in accordance with the criteria of Test Example 1.

beet = experiment: Test Example 5: effect on crop by foliage application, plastic box (symbol f); conditions: 320 g/ha, 3 weeks after application
Outline: as §2

rice plant = experiment: Test Example 5: effect on crop by foliage application, plastic box (symbol b); conditions: 320 g/ha, 3 weeks after application
Outline: as §2

[3] = test system: Echinochloa oryzacola Vasing.; experiment: Test Example 1: herbicidal activity, application before weed generation in submerged conditions (symbol A); conditions: application herbicide amount 320 g/ha
Outline: (§5)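 0–5 visual score, 3 wk post-application. Submerged pots, alluvial soil, water 4 cm; seeds sown mixed, rice at 2.5 leaves transplanted. Emulsion diluted to predetermined dose, applied to water surface at sowing. 25–30 °C greenhouse.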

Avena fatua = experiment: Test Example 5: herbicidal effect by foliage application, plastic box (symbol I); conditions: 320 g/ha, 3 weeks after application
Outline: (§6)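 Visual herbicidal score, taken three weeks post-application, of seedlings sprayed on the foliage with water-diluted emulsion at a predetermined amount; plants were 14 days old, greenhouse-raised at 25° C. to 30° C.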

[4] = test system: Echinochloa crus-galli var. crus-galli; experiment: Test Example 5: herbicidal effect by foliage application, plastic box (symbol H); conditions: 320 g/ha, 3 weeks after application
Outline: as §6

[5] = test system: Echinochloa oryzacola Vasing.; experiment: Test Example 2: herbicidal activity, application during weed generation in submerged conditions (symbol A); conditions: Table 23; application herbicide amount 320 g/ha; grade 0-5 by criteria of Test Example 1
Protocol: as §3, §4

Scirpus juncoides [6] = experiment: Test Example 1: herbicidal activity, application before weed generation in submerged conditions (symbol B); conditions: application herbicide amount 320 g/ha
Outline: as §5

corn = experiment: Test Example 5: effect on crop by foliage application, plastic box (symbol c); conditions: 320 g/ha, 3 weeks after application
Outline: as §2

Digitaria ciliaris = experiment: Test Example 5: herbicidal effect by foliage application, plastic box (symbol F); conditions: 320 g/ha, 3 weeks after application
Outline: as §6

Setaria viridis = experiment: Test Example 5: herbicidal effect by foliage application, plastic box (symbol G); conditions: 320 g/ha, 3 weeks after application
Outline: as §6

wheat = experiment: Test Example 5: effect on crop by foliage application, plastic box (symbol e); conditions: 320 g/ha, 3 weeks after application
Outline: as §2

Apera spica-venti = experiment: Test Example 5: herbicidal effect by foliage application, plastic box (symbol L); conditions: 320 g/ha, 3 weeks after application
Outline: as §6

Amaranthus retroflexus = experiment: Test Example 5: herbicidal effect by foliage application, plastic box (symbol N); conditions: 320 g/ha, 3 weeks after application
Outline: as §6

Monochoria vaginalis [7] = experiment: Test Example 1: herbicidal activity, application before weed generation in submerged conditions (symbol C); conditions: application herbicide amount 320 g/ha
Outline: as §5

Veronica persica = experiment: Test Example 5: herbicidal effect by foliage application, plastic box (symbol R); conditions: 320 g/ha, 3 weeks after application
Outline: as §6

Galium spurium = experiment: Test Example 5: herbicidal effect by foliage application, plastic box (symbol Q); conditions: 320 g/ha, 3 weeks after application
Outline: as §6

Scirpus juncoides [8] = experiment: Test Example 2: herbicidal activity, application during weed generation in submerged conditions (symbol B); conditions: Table 23; application herbicide amount 320 g/ha; grade 0-5 by criteria of Test Example 1
Protocol: as §3, §4

Alopecurus myosuroides = experiment: Test Example 5: herbicidal effect by foliage application, plastic box (symbol J); conditions: 320 g/ha, 3 weeks after application
Outline: as §6

rapeseed = experiment: Test Example 5: effect on crop by foliage application, plastic box (symbol g); conditions: 320 g/ha, 3 weeks after application
Outline: as §2

Abutilon theophrasti = experiment: Test Example 5: herbicidal effect by foliage application, plastic box (symbol M); conditions: 320 g/ha, 3 weeks after application
Outline: as §6

Stellaria media = experiment: Test Example 5: herbicidal effect by foliage application, plastic box (symbol P); conditions: 320 g/ha, 3 weeks after application
Outline: as §6

Lolium multiflorum Lam. = experiment: Test Example 5: herbicidal effect by foliage application, plastic box (symbol K); conditions: 320 g/ha, 3 weeks after application
Outline: as §6

Chenopodium album = experiment: Test Example 5: herbicidal effect by foliage application, plastic box (symbol O); conditions: 320 g/ha, 3 weeks after application
Outline: as §6

[9] = test system: Echinochloa crus-galli var. crus-galli; experiment: Test Example 3: herbicidal effect by foliage application, Wagner pot (symbol H); conditions: application herbicide amount 320 g/ha
Outline: as §1

Cyperus difformis = experiment: Test Example 3: herbicidal effect by foliage application, Wagner pot (symbol E); conditions: application herbicide amount 320 g/ha, Table 24
Outline: as §1

| SMILES | d: soybean, effect on crop grade (soybean) | Herbicidal effect grade, C: Monochoria vaginalis (Monochoria vaginalis [2]) | f: beet, effect on crop grade (beet) | b: directly sowed rice plant, effect on crop grade (rice plant) | I: Avena fatua, herbicidal effect grade (Avena fatua) | H: Echinochloa crus-galli var. crus-galli, herbicidal effect grade [4] | Herbicidal effect grade, A: Echinochloa oryzacola Vasing. [5] | c: corn, effect on crop grade (corn) | F: Digitaria ciliaris, herbicidal effect grade (Digitaria ciliaris) | G: Setaria viridis, herbicidal effect grade (Setaria viridis) | e: wheat, effect on crop grade (wheat) | L: Apera spica-venti, herbicidal effect grade (Apera spica-venti) | N: Amaranthus retroflexus, herbicidal effect grade (Amaranthus retroflexus) | R: Veronica persica, herbicidal effect grade (Veronica persica) | Q: Galium spurium, herbicidal effect grade (Galium spurium) | Herbicidal effect grade, B: Scirpus juncoides (Scirpus juncoides [8]) | J: Alopecurus myosuroides, herbicidal effect grade (Alopecurus myosuroides) | g: rapeseed, effect on crop grade (rapeseed) | M: Abutilon theophrasti, herbicidal effect grade (Abutilon theophrasti) | P: Stellaria media, herbicidal effect grade (Stellaria media) | also measured |
| --- | --- | --- | --- | --- | --- | --- | --- | --- | --- | --- | --- | --- | --- | --- | --- | --- | --- | --- | --- | --- | --- |
| CON=C(C)CC1CC(OCC(Cl)=CCl)=C(c2c(C)cc(C)cc2C)C1=O (stereo not shown) [1-166] | 1 (Herbicidal ratio of 5% or higher and lower than 20%) | 0 (Herbicidal ratio of 5% or lower (almost no effect)) | 0 (Herbicidal ratio of 5% or lower (almost no effect)) | 3 (Herbicidal ratio of 40% or higher and lower than 70%) | 5 (Herbicidal ratio of 90% or more (almost completely withered)) | 4 (Herbicidal ratio of 70% or higher and lower than 90%) | 3 (Herbicidal ratio of 40% or higher and lower than 70%) | 1 (Herbicidal ratio of 5% or higher and lower than 20%) | 1 (Herbicidal ratio of 5% or higher and lower than 20%) | 1 (Herbicidal ratio of 5% or higher and lower than 20%) | 1 (Herbicidal ratio of 5% or higher and lower than 20%) | 5 (Herbicidal ratio of 90% or more (almost completely withered)) | 0 (Herbicidal ratio of 5% or lower (almost no effect)) | 0 (Herbicidal ratio of 5% or lower (almost no effect)) | 0 (Herbicidal ratio of 5% or lower (almost no effect)) | 0 (Herbicidal ratio of 5% or lower (almost no effect)) | 4 (Herbicidal ratio of 70% or higher and lower than 90%) | 4 (Herbicidal ratio of 70% or higher and lower than 90%) | 3 (Herbicidal ratio of 40% or higher and lower than 70%) | 0 (Herbicidal ratio of 5% or lower (almost no effect)) | Effect grade on crop, a: transplanted rice plant (transplanted rice plant): 0 (Herbicidal ratio of 5% or lower (almost no effect)); herbicidal effect on D (Leptochloa chinensis), grade 0-5 (Leptochloa chinensis): 4 (Herbicidal ratio of 70% or higher and lower than 90%); effect on crop b (directly sowed rice plant), grade 0-5 [1]: 3 (Herbicidal ratio of 40% or higher and lower than 70%); Herbicidal effect grade, A: Echinochloa oryzacola Vasing. [3]: 5 (Herbicidal ratio of 90% or more (almost completely withered)); Herbicidal effect grade, B: Scirpus juncoides (Scirpus juncoides [6]): 0 (Herbicidal ratio of 5% or lower (almost no effect)); Herbicidal effect grade, C: Monochoria vaginalis (Monochoria vaginalis [7]): 0 (Herbicidal ratio of 5% or lower (almost no effect)); K: Lolium multiflorum Lam., herbicidal effect grade (Lolium multiflorum Lam.): 5 (Herbicidal ratio of 90% or more (almost completely withered)); O: Chenopodium album, herbicidal effect grade (Chenopodium album): 0 (Herbicidal ratio of 5% or lower (almost no effect)); herbicidal effect on H (Echinochloa crus-galli var. crus-galli), grade 0-5 [9]: 4 (Herbicidal ratio of 70% or higher and lower than 90%) |
| COc1cc(Br)cc(C)c1C1=C(O)CC(C(C)C(C)=O)C1=O (stereo not shown) [7-031] | 0 (Herbicidal ratio of 5% or lower (almost no effect)) | 2 (Herbicidal ratio of 20% or higher and lower than 40%) | 0 (Herbicidal ratio of 5% or lower (almost no effect)) | 4 (Herbicidal ratio of 70% or higher and lower than 90%) | 3 (Herbicidal ratio of 40% or higher and lower than 70%) | 5 (Herbicidal ratio of 90% or more (almost completely withered)) | 0 (Herbicidal ratio of 5% or lower (almost no effect)) | 1 (Herbicidal ratio of 5% or higher and lower than 20%) | 4 (Herbicidal ratio of 70% or higher and lower than 90%) | 5 (Herbicidal ratio of 90% or more (almost completely withered)) | 0 (Herbicidal ratio of 5% or lower (almost no effect)) | 5 (Herbicidal ratio of 90% or more (almost completely withered)) | 0 (Herbicidal ratio of 5% or lower (almost no effect)) | 0 (Herbicidal ratio of 5% or lower (almost no effect)) | 0 (Herbicidal ratio of 5% or lower (almost no effect)) | 1 (Herbicidal ratio of 5% or higher and lower than 20%) | 3 (Herbicidal ratio of 40% or higher and lower than 70%) | 0 (Herbicidal ratio of 5% or lower (almost no effect)) | 0 (Herbicidal ratio of 5% or lower (almost no effect)) | 0 (Herbicidal ratio of 5% or lower (almost no effect)) | E herbicidal effect grade (Cyperus difformis): 3 (Herbicidal ratio of 40% or higher and lower than 70%); D (Leptochloa chinensis) herbicidal effect grade (Leptochloa chinensis; Table 24): 5 (Herbicidal ratio of 90% or more (almost completely withered)); b (directly sowed rice plant) effect on crop grade ([1]; Table 24): 5 (Herbicidal ratio of 90% or more (almost completely withered)); K: Lolium multiflorum Lam., herbicidal effect grade (Lolium multiflorum Lam.): 5 (Herbicidal ratio of 90% or more (almost completely withered)); O: Chenopodium album, herbicidal effect grade (Chenopodium album): 0 (Herbicidal ratio of 5% or lower (almost no effect)); H (Echinochloa crus-galli var. crus-galli) herbicidal effect grade ([9]; Table 24): 4 (Herbicidal ratio of 70% or higher and lower than 90%) |
